# Experimental data as given in patent US4018895A, “Aryloxyphenylpropylamines in treating depression” (Eli Lilly and Company, priority 1975, dated 1977).
# Tests used:
# [1] = tested on: hypothermia induced by the injection of apomorphine; assay: Apomorphine hypothermia antagonism test; format: in vivo, mice; conditions: for Reduction of apomorphine hypothermia: 10 mg./kg. dose, measured 60 minutes after injection of the apomorphine; for Activity in antagonism of apomorphine hypothermia: in words
# Experimental: The apomorphine hypothermia antagonism test is carried out as follows: mice are injected with a dose of apomorphine known to reduce body temperature approximately 4° C. […] The degree of antagonism is expressed as a percent reduction (as compared with controls) of the temperature decrease produced by the injection of the apomorphine. The reserpine hypothermia reversal test is carried out as follows: groups of mice are injected with reserpine and 16.5 hours later are injected intraperitoneally with graded doses of the drug, a different dose level being given to each group of mice. Temperatures are measured at 1 hour after injection of the drug under test and again the effectiveness of the drug is expressed as a percentage decrease in the hypothermia induced by the injection of reserpine as compared with the control group. In the tablets which follow, Table 4 gives the results in the apomorphine antagonism and reserpine reversal hypothermia tests for the secondary amines of this invention. In the table, the first column gives the substituent attached to the oxygen atom at the 3 position of the propylamine chain; columns 2 to 4 the percent antagonism against apomorphine hypothermia at dose levels of 0.3, 1 and 3 mg./kg. and columns 5-7 the percent reversal of reserpine hypothermia at the same dose levels.
# [2] = tested on: response rates of pigeons; assay: Operant behavior, fixed-ratio, fixed interval schedule; format: in vivo
# Excerpt: In manifesting their psychotropic action, the compounds of this invention also affect the behavior of animals trained in a variety of operant behavior schedules. Again, the activity of compounds of this invention in this type of test parallels that of known antidepressant drugs, particularly desmethylimipramine. […] With pigeons trained under an adjusting ratio schedule, the drugs of this invention affect behavior in the same way as does the marketed antidepressant, desmethylimipramine (DMI). […] The above results are consistent with antidepressant action.
# [3] = tested on: brain serotonin; assay: Prevention of brain serotonin depletion caused by 4-chloroamphetamine; format: in vivo; conditions: rats injected with 4-chloroamphetamine; drug 15 mg./kg. intraperitoneally; 4 hours later
# Experimental: Following this injection, the protecting drug was injected at a dose of 15 mg./kg. of rat-weight intraperitoneally and determinations of brain serotonin levels were carried out 4 hours later.
# [4] = tested on: hypothermia induced by the injection of reserpine; assay: Reserpine hypothermia reversal test; format: in vivo, mice; conditions: for Activity in reversal of reserpine hypothermia: in words
# Experimental: The apomorphine hypothermia antagonism test is carried out as follows: mice are injected with a dose of apomorphine known to reduce body temperature approximately 4° C. The compound under test is injected 1/2 hour before the injection of the apomorphine and the temperatures measured 1/2 hour after injection. The degree of antagonism is expressed as a percent reduction (as compared with controls) of the temperature decrease produced by the injection of the apomorphine. The reserpine hypothermia reversal test is carried out as follows: groups of mice are injected with reserpine and 16.5 hours later are injected intraperitoneally with graded doses of the drug, a different dose level being given to each group of mice. Temperatures are measured at 1 hour after injection of the drug under test and again the effectiveness of the drug is expressed as a percentage decrease in the hypothermia induced by the injection of reserpine as compared with the control group. In the tablets which follow, Table 4 gives the results in the apomorphine antagonism and reserpine reversal hypothermia tests for the secondary amines of this invention. In the table, the first column gives the substituent attached to the oxygen atom at the 3 position of the propylamine chain; columns 2 to 4 the percent antagonism against apomorphine hypothermia at dose levels of 0.3, 1 and 3 mg./kg. and columns 5-7 the percent reversal of reserpine hypothermia at the same dose levels.
# [5] = tested on: antihistaminic effect, isolated muscle strips; assay: Antihistaminic effect in isolated muscle strips
# [6] = tested on: anticholinergic effect, isolated muscle strips; assay: Anticholinergic effect in isolated muscle strips
# [7] = tested on: antiserotonin effect, isolated muscle strips; assay: Antiserotonin effect in isolated muscle strips
# [8] = tested on: QRS complex of the electrocardiogram; assay: Electrocardiogram in anesthetized cats after intravenous injection; conditions: in words
# [9] = tested on: norepinephrine uptake by synaptosomes from rat brain; assay: In vitro blockade of norepinephrine uptake by synaptosomes from rat brain; format: biochemical; conditions: Table 1, scaffold drawing 3; norepinephrine 0.48 μM
# Excerpt: (§1) This blockade is shown both in vitro with radioactive labelled compounds to determine the amount of monoamine uptake by synaptosomes from rat brain, and in vivo by a variety of methods. Among the physiologically active monoamines whose uptake is blocked by the compounds of this invention are included serotonin, norepinephrine and dopamine (3,4-dihydroxyphenylethylamine). […] Tables 1 and 2 which follow set forth the results of some of the in vitro determinations of the blockage of monoamine uptake by the compounds of this invention. In the tables, column 1 gives the R substituent on the 3-phenylpropylamine and columns 2-4, the concentration in micrograms per ml. that blocks the uptake of a particular amine by 50 percent for the amines--norephinephrine, serotonin, and dopamine. At the head of each column is given the concentration of the particular monoamine used in the experiment.
# [10] = tested on: serotonin uptake by synaptosomes from rat brain; assay: In vitro blockade of serotonin uptake by synaptosomes from rat brain; format: biochemical; conditions: Table 1, scaffold drawing 3; serotonin 0.1 μM
# Excerpt: as §1
# [11] = tested on: dopamine uptake by synaptosomes from rat brain; assay: In vitro blockade of dopamine uptake by synaptosomes from rat brain; format: biochemical; conditions: Table 1, scaffold drawing 3; dopamine 0.2 μM
# Excerpt: as §1
compound,measurement,setting,value
"CNCCC(Oc1ccccc1OC)c1ccccc1.Cl (stereo not shown) [o-anisyl, N-methyl 3-(o-methoxyphenoxy)-3-phenylpropylamine hydrochloride]",Reduction of apomorphine hypothermia,[1],100%
same,Persistence of the effect on response rates,[2],more than 24 hours
"CNCCC(Oc1ccc(C(F)(F)F)cc1)c1ccccc1 (stereo not shown) [p-trifluoromethylphenyl, N-methyl 3-(p-trifluoromethylphenoxy)-3-phenylpropylamine]",Brain serotonin level,[3],0.69 ± .02 µg/g
CNCCCN1c2ccccc2CCc2ccccc21 [desmethylimipramine],Brain serotonin level,[3],0.44 ± .03 µg/g
same,Activity in antagonism of apomorphine hypothermia,[1],active
same,Activity in reversal of reserpine hypothermia,[4],active
same,"Response rates in fixed-ratio, fixed interval schedule",[2]; in words,A similar effect
same,Potency as antihistaminic agent relative to N-methyl 3-(o-methoxyphenoxy)-3-phenylpropylamine,[5],150 times
same,Potency as anticholinergic agent relative to N-methyl 3-(o-methoxyphenoxy)-3-phenylpropylamine,[6],150 times
same,Potency as antiserotonin agent relative to N-methyl 3-(o-methoxyphenoxy)-3-phenylpropylamine,[7],three
CN(C)CCCN1c2ccccc2CCc2ccc(Cl)cc21 [chloroimipramine],Brain serotonin level,[3],0.45 ± .03 µg/g
"CN(C)CCC=C1c2ccccc2CCc2ccccc21 [amitriptyline, reference compound]",Reduction of apomorphine hypothermia,[1],100%
same,Activity in antagonism of apomorphine hypothermia,[1],active
same,Activity in reversal of reserpine hypothermia,[4],active
same,Effect on the electrocardiogram (widening of the QRS complex),[8],causes a widening of the QRS complex of the electrocardiogram
"COc1ccccc1OC(CCN)c1ccccc1 (stereo not shown) [3-(o-Methoxyphenoxy)-3-phenylpropylamine, 3-(o-methoxyphenoxy)-3-phenylpropylamine]",Effect on the electrocardiogram (widening of the QRS complex),[8],"affects the electrocardiogram similarly, but at far higher doses"
"CN(C)CCC(Oc1ccccc1Cl)c1ccccc1.O=C(O)/C=C\C(=O)O (stereo not shown) [o-chlorophenyl, N,N-dimethyl 3-(o-chlorophenoxy)-3-phenylpropylamine maleate]","Concentration that blocks 50% of amine uptake, Norepinephrine",[9],.45 mcq./ml.
same,"Concentration that blocks 50% of amine uptake, Serotonin",[10],.2 mcq./ml.
same,"Concentration that blocks 50% of amine uptake, Dopamine",[11],.2 mcq./ml.
same,inhibition in vivo at 1 mg/kg,"[1]; Mus musculus, Table 5, dimethylamino compounds, 1 mg./kg., Pre-30 min., mice, read-out: Percent Antagonism Apomorphine",-10%
same,inhibition in vivo at 3 mg/kg,"[1]; Mus musculus, Table 5, dimethylamino compounds, 3 mg./kg., Pre-30 min., mice, read-out: Percent Antagonism Apomorphine",-17%
same,inhibition in vivo at 10 mg/kg,"[1]; Mus musculus, Table 5, dimethylamino compounds, 10 mg./kg., Pre-30 min., mice, read-out: Percent Antagonism Apomorphine",57%
same,inhibition in vivo at 1 mg/kg,"[4]; Mus musculus, ip, 1 h, Table 5, dimethylamino compounds, 1 mg./kg. intraperitoneally, Post-60 min., mice, read-out: Percent Antagonism Reserpine",3%
same,inhibition in vivo at 3 mg/kg,"[4]; Mus musculus, ip, 1 h, Table 5, dimethylamino compounds, 3 mg./kg. intraperitoneally, Post-60 min., mice, read-out: Percent Antagonism Reserpine",4%
same,inhibition in vivo at 10 mg/kg,"[4]; Mus musculus, ip, 1 h, Table 5, dimethylamino compounds, 10 mg./kg. intraperitoneally, Post-60 min., mice, read-out: Percent Antagonism Reserpine",25%
